These results are taken from US20190167711A1, “METHODS FOR DIAGNOSIS AND TREATMENT OF ACUTE LYMPHOBLASTIC LEUKEMIA” (MOR RESEARCH APPLICATIONS LTD., priority 2014, published 2019).

In data set [1] the test system is Nalm-6 cells. Description: Tumor growth of transfected Nalm-6 cells injected s.c. into NOD/SCID mice. In kind it is in vivo. An excerpt:
As described herein, decreased expression of miR-451 in comparison to a control level can serve as a prognostic factor for ALL relapse risk, as low expression of miR-451 at first diagnosis predicts worse outcome. […] Scrambled miRNA-transfected cells served as negative control (Nalm-6/miR-NC). Quantitative reverse transcription PCR (RT-qPCR) was used to confirm miR-451 expression in the transfected cells.
To further study the putative tumor-suppressive function of hsa-miR-451 in vivo, 10^7 viable Nalm-6 cells either untransfected, transfected in vitro with miR-451 mimic, or transfected with scrambled miR (control), were injected sub-cutaneously (s.c.) into the right flanks of 6-week-old female NOD/SCID mice. […] On day 26, the median tumor volume in the scrambled control mice and the miR-451 mimic mice were 204.69 mm^3 (SE=63.96) and 23.32 mm^3 (SE=13.12), respectively (p=0.019). At the end of the experiment, mice were sacrificed, and the tumors were weighted. The median tumor weight in the scrambled control mice and the miR-451 mimic mice were 0.0966 gr (SE=0.040) and 0.0159 gr (SE=0.0009), respectively (p=0.046) (FIG. 4C).

The next data set concerns NAMPT 3′-UTR. Description: Luciferase reporter assay with NAMPT 3′-UTR. In kind it is cell-based. Particulars: after transfection. An excerpt:
To perform the reporter assay, the regulatory region of NAMPT is cloned […] of the Firefly luciferase gene in an expression vector, and the resulting recombinant vector, e.g., pLightSwitch 3′UTR, is transfected into cells along with an expression vector comprising the Renilla gene serving as reference. In accordance with some embodiments described herein, a target reporter vector containing the full-length wild type NAMPT 3′ untranslated region (3′-UTR) (pLightSwithch NAMPT 3′UTR) purchased from GeneCopoeia™ (Rockville, Md., USA) was co-transfected into NALM-6 cells along with Renilla luciferase vector as internal vector control. The NAMPT 3′-UTR contains miRNA response elements (MREs), to one of which miRNA-451 specifically binds. Twenty-four hours before transfection, NALM-6 cells were plated in 6 wells until 70% confluent. Two hundred (200) pmol miR-451 mimic, 200 pmol scrambled miR (both purchased from IDT®-Syntezza, Jerusalem, Israel) or 2 μg antagomiR-451 plasmid (GeneCopoeia™, Rockville, Md., USA) were transiently transfected into NALM-6 cells together with 2 μg pLightSwitch NAMPT 3′UTR and Renilla luciferase vector. […] Briefly, cells were collected, lysed to release all proteins (including the luciferase), luciferin was added along with all the necessary cofactors, and the enzymatic activity was quantitatively measured using a luminometer. […]

Data set [2] deals with Nalm-6 cells. The data set can be described thus: XTT cell viability assay in Nalm-6 cells. Particulars: NALM-6 cells, transient expression. In kind it is cell-based. On the procedure:
Cell viability assay was performed using the Cell Proliferation Kit comprising the second-generation tetrazolium dye, XTT. Viable cells with active metabolism convert XTT into an orange colored reduction product, whereas dead cells lose the ability to reduce XTT, thus, color formation serves as a useful and convenient marker of only the viable cells.
The XTT kit was applied to NALM6 transfected cells according to the manufacturer's protocol (Biological Industries, Kibbutz Beit Haemek, Israel). Cells were incubated for 3 hours with the XTT reagent and quantity of reduced XTT (directly proportional to the number of viable cells) was assessed by recording changes in absorbance as measured on a microplate reader at 450-500 nm optical density (OD).
To measure the effect of NAD^+ depletion following FK866 treatment of Nalm-6 cells, apoptosis and viability were measured as described in Materials and Methods. Nalm-6 cells were treated for 48 hours with 1 nM FK866, and then apoptosis was measured using FACS.
On the technique in general: Tetrazolium dyes change colour on reduction, which living cells bring about.

The next data set relates to NAMPT. The data set can be described thus: Western blot of NAMPT in transfected NALM-6 cells. To be noted: NALM-6 transient. In kind it is cell-based. The source says:
(§1) Protein was extracted from NALM-6 cell line using Qproteome™ lysis buffer (Qiagen, Hilden, Germany). The membrane was then probed with one or more of the following antibodies: anti-disintegrin and metalloproteinase domain-containing protein 10 (ADAM10) (1:1000) (Abcam; Cambridge, UK) (see Example 9); anti-chemokine C-X-C motif 16 (CXCL16) (1:1000); anti-NAMPT (1:1000); and anti-GAPDH (1:5000) (Santa Crus Biotechnology, Santa Crus, Calif., USA) (see Examples 5 and 9). The secondary antibodies were goat anti-mouse and goat anti-rabbit (1:10,000) (Sigma®, Saint Louis, Mo., USA), for each antigen according to the manufacturer's instructions. […]
(§2) Intensity of the protein band was measured using an in-house program. […]
(§3) Possible miR-451 targets were evaluated using several open access software programs (e.g., Targetscan, PicTar, miRanda, miRDB). […] In the first screening, the suppression of ADAM10, CXCL16 and NAMPT protein level was analyzed in NALM-6 cells transiently expressing miR-451 mimic (SEQ ID NO: 2) and in cells transiently expressing scrambled-miR (universal sequence; negative control) by Western blot as described in Materials and Methods. […]
Background: A western blot detects proteins with antibodies after separation by electrophoresis.

The next data set has as its system ADAM10. Description: Western blot of ADAM10 in transfected NALM-6 cells. To be noted: NALM-6 transient. In kind it is cell-based.
Source text: as §1, §2, §3

Regarding “miR-451 mimic: a dsmiR-451 designed to copy or mimic the functionality of mature endogenous miR-451 upon transfection (AAACCGUUACCAUUACUGAGUU; double-stranded mimic, further chemistry not given here; listed as Homo sapiens)”, the “tumor growth vs scrambled miR control cells” value in the data set on Nalm-6 cells [1] (after 20 days) is “significantly decreased tumor growth”. In the data set on Nalm-6 cells [1] (day 26, 10^7 transfected Nalm-6 cells s.c., female NOD/SCID mice), the median tumor volume was determined as 23.32 mm^3. In the data set on Nalm-6 cells [1] (end of the experiment), this substance returned a median tumor weight of 0.0159 gr. Further, in the data set on NAMPT 3′-UTR, the “relative luciferase activity of NAMPT 3′-UTR reporter decreased by” value is 80%. Besides, the effect on viability entry in the data set with Nalm-6 cells [2] was “No effect”. Besides, in the data set with NAMPT, the “NAMPT protein expression levels compared to scrambled-miR” value was “reduced”. In addition, the “ADAM10 protein level compared to scrambled-miR” value in the data set on ADAM10 was “only NAMPT protein expression levels were reduced”.
